Assay [1] addresses T1, D-aspartate oxidase (Homo sapiens, UniProt Q99489).
T1 sequence (Q99489 whole entry): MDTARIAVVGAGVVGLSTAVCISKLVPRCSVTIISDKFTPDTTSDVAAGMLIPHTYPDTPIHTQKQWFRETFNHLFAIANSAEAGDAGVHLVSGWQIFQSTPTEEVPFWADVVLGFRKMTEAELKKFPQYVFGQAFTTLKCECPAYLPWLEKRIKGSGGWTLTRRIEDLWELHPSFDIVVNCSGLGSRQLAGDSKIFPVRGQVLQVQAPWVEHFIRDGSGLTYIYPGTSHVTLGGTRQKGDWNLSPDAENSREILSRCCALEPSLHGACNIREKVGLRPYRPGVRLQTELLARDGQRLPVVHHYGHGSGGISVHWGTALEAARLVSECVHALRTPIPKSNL
Put plainly: Inhibition of human recombinant DDO expressed in Escherichia coli BL21(DE3) using D-Asp and D-Ala assessed as 2-oxo acid production after 10 mins by colorimetric assay.

The target in another assay is D-amino-acid oxidase (Homo sapiens, UniProt P14920). Put plainly: Inhibition of human recombinant DAO expressed in Escherichia coli BL21(DE3) using D-Asp and D-Ala assessed as 2-oxo acid production after 10 mins by colorimetric assay.
Sequence of D-amino-acid oxidase (P14920 whole entry): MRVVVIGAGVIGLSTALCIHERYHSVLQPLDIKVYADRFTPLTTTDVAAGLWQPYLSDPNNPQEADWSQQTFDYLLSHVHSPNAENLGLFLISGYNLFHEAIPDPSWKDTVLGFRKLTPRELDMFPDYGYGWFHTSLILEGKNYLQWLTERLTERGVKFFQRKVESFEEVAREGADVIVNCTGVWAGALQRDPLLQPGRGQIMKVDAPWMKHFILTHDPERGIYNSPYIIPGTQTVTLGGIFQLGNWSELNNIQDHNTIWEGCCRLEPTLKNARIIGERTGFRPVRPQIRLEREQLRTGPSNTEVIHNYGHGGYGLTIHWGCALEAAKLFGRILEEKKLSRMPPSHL
Assay [2] concerns the target T2, D-aspartate oxidase (Homo sapiens) (UniProt Q99489).
T2 sequence (whole entry): T1 sequence (Q99489 whole entry)
As to conditions: HeLa, 1000 uM.

Assay [3] has as its system HeLa. In words: Effect on L-Asp level in human HeLa cells at 1000 uM after 24 hrs by HPLC analysis. Format: functional, cell-based.
Assay [4] addresses T2, D-aspartate oxidase (Homo sapiens). Put plainly: Competitive inhibition of human recombinant DDO expressed in Escherichia coli BL21(DE3) using D-Asp by Lineweaver-Burk plot analysis.
The target of assay [5] is T3, D-aspartate oxidase (Mus musculus, UniProt Q922Z0).
T3 sequence (Q922Z0 whole entry): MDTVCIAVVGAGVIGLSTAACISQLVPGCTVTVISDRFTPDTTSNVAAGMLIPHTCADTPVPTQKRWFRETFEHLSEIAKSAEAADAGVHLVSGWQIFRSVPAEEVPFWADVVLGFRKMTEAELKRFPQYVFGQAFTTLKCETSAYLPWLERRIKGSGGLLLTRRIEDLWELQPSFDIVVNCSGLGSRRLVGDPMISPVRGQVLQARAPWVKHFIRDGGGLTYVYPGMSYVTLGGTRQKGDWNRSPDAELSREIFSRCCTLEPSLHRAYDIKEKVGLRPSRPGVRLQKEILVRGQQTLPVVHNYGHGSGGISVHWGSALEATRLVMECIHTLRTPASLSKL
Put plainly: Inhibition of mouse recombinant DDO using D-Asp.

The target in assay [6] is T4, D-aspartate oxidase (Rattus norvegicus, UniProt D3ZDM7).
T4 sequence (D3ZDM7 whole entry): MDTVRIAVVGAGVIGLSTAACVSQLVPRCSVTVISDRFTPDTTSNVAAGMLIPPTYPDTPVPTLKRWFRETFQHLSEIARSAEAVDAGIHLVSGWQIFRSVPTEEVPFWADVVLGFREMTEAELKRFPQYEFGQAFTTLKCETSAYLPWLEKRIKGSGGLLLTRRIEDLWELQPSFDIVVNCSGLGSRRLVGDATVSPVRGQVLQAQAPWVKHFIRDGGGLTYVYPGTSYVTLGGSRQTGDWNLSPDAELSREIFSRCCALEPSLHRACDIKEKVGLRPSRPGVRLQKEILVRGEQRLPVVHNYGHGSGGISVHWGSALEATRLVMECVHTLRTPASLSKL
In words: (§1) Inhibition of rat recombinant DDO using D-Asp.

The target of assay [7] is T1, D-aspartate oxidase.
Assay [8] has as its target T2, D-aspartate oxidase (Homo sapiens). As to conditions: HeLa, 1000 uM. The source holds these as a separate data set.
For assay [9], the system named is HeLa. In words: Effect on D-Asp level in human HeLa cells at 1000 uM after 24 hrs by HPLC analysis. Format: functional, cell-based.
Assay [10] relates to HeLa. Put plainly: Effect on L-Asp level in human HeLa cells at 100 uM after 24 hrs by HPLC analysis. Format: functional, cell-based.
In assay [11] the target is T5, D-aspartate oxidase (Rattus norvegicus) (UniProt D3ZDM7).
T5 sequence (whole entry): T4 sequence (D3ZDM7 whole entry)
Described as §1.

Assay [12] deals with HeLa. In words: Effect on D-Asp level in human HeLa cells at 100 uM after 24 hrs by HPLC analysis. The assay is classed as functional, cell-based.
For assay [13], the target named is T2, D-aspartate oxidase (Homo sapiens). As to conditions: HeLa, 250 uM.
Assay [14] has the same target. As to conditions: HeLa, 250 uM. This is another data set of the same source.
The test system of assay [15] is HeLa. In words: Effect on L-Asp level in human HeLa cells at 250 uM after 24 hrs by HPLC analysis. Format: functional, cell-based.
The target of assay [16] is T2, D-aspartate oxidase (Homo sapiens). As to conditions: HeLa, 250 uM. The source holds these as a separate data set.

A word on the IC50: it is the concentration needed to halve the response being measured. By Ki is commonly meant the equilibrium dissociation constant of an inhibitor or competing ligand from its target.

Activity calls are given as the source filed them. The rule behind the calls is not given here.

Turning to `O=C(O)c1cc(F)ccc1O`, the figures for the IC50 at D-aspartate oxidase [1] and at D-amino-acid oxidase were greater than 10 mM and 1.05 mM, respectively.

In the case of `O=C(O)c1ncccc1O`, the IC50 is greater than 10 mM at D-aspartate oxidase [1] and 2.48 mM on D-amino-acid oxidase.

Take `Nc1cccc(C(=O)O)c1` [3-AMINOBENZOIC ACID]: the IC50 on D-aspartate oxidase [1] was greater than 10 mM; at D-amino-acid oxidase, 0.392 mM.

Turning to `CN(C)c1cncc(C(=O)O)c1`, the IC50 on D-aspartate oxidase [1] is greater than 1 mM.

As for `Cc1cncc(C(=O)O)c1`, the IC50 is 5.47 mM on D-aspartate oxidase [1] and 1.5 mM on D-amino-acid oxidase.

For `NC(=O)c1csc(C(=O)O)c1`, the IC50 was greater than 5 mM on D-aspartate oxidase [1] and 0.347 mM on D-amino-acid oxidase.

In the case of `Nc1cc(C(=O)O)ccn1`, the IC50 on D-aspartate oxidase [1] and on D-amino-acid oxidase was greater than 0.1 mM throughout.

For the compound `Nc1cccnc1C(=O)O`, the IC50 on D-aspartate oxidase [1] and on D-amino-acid oxidase was greater than 1 mM each time.

On to `Cc1cc(C(=O)O)c(N)s1`, for which the IC50 worked out at 4.25 mM at D-aspartate oxidase [1] and 1.44 mM at D-amino-acid oxidase.

In the case of `COc1cncc(C(=O)O)c1`, the IC50 at D-aspartate oxidase [1] is greater than 10 mM.

In the case of `Nc1ncccc1C(=O)O`, the IC50 at D-aspartate oxidase [1] and on D-amino-acid oxidase was greater than 1 mM each time.

`Cc1ccc(C(=O)O)c(O)n1`: the IC50 at D-aspartate oxidase [1] and on D-amino-acid oxidase was greater than 10 mM each time.

As to `O=C(O)c1cncc(-c2ccccc2)c1`, at D-aspartate oxidase [1], the IC50 is greater than 5 mM.

Consider `O=C(O)c1cc(Cl)ccc1O` [5-CHLOROSALICYLIC ACID], for which the values for the IC50 at D-aspartate oxidase [1] and on D-amino-acid oxidase were greater than 10 mM and 3.67 mM, respectively.

Regarding `Nc1cnccc1C(=O)O`, the IC50 at D-aspartate oxidase [1] and at D-amino-acid oxidase was greater than 5 mM throughout.

As for `Nc1ccncc1C(=O)O`, the IC50 at D-aspartate oxidase [1] and at D-amino-acid oxidase was greater than 0.1 mM each time.

As for `O=C(O)CC(=O)O` [MALONIC ACID], the inhibition result in assay [2] and in assay [8] was “inactive” in each case. Also, the outcome in the assay with HeLa [3] and in the assay on HeLa [9] was inactive. For the same compound, in [4], the inhibition entry was “Active”. Besides, the Ki at D-aspartate oxidase [5] was found to be 1220 µM; at D-aspartate oxidase [6], 1560 µM; on D-aspartate oxidase [7] it was 153 µM. Moreover, the IC50 on D-aspartate oxidase [1] was 0.879 mM; at D-amino-acid oxidase, greater than 10 mM.

As to `O=C(O)c1cccnc1` [NIACIN], the IC50 was found to be 2.78 mM on D-aspartate oxidase [1] and 1.13 mM on D-amino-acid oxidase.

For the compound `O=C(O)c1cn2cnnc2nc1O`, the outcome in the assay with HeLa [10] and with HeLa [12] was inactive. Also, the Ki worked out at 32.6 µM at D-aspartate oxidase [5] and 65.9 µM at D-aspartate oxidase [6]. Moreover, the inhibition result in assay [11] was “Dose-dependent effect”. The IC50 on D-amino-acid oxidase was greater than 0.5 mM.

`O=C(O)c1cncc(C(=O)O)c1`: the IC50 at D-aspartate oxidase [1] was greater than 10 mM.

In the case of `Nc1ccnc(C(=O)O)c1`, the IC50 on D-aspartate oxidase [1] and at D-amino-acid oxidase was greater than 0.1 mM each time.

`Nc1ccc(Cl)cc1C(=O)O`: the IC50 was greater than 10 mM at D-aspartate oxidase [1] and 3.93 mM on D-amino-acid oxidase.

On to `Nc1cccc(C(=O)O)n1`, for which the IC50 at D-aspartate oxidase [1] and on D-amino-acid oxidase was greater than 0.1 mM in each case.

As to `O=C(O)c1cncc(Br)c1`, the IC50 at D-aspartate oxidase [1] is greater than 10 mM.

Consider `Nc1cccnc1`, for which the IC50 on D-aspartate oxidase [1] and at D-amino-acid oxidase was greater than 10 mM each time.

Consider `Nc1cncc(C(=O)O)c1`, for which the inhibition result in assay [13], in [4] and in assay [16] was “Active” in each case. For the same compound, the inhibition result in [14] is “inactive”. For the same compound, the Ki on D-aspartate oxidase [5] came out at 8.69 µM; at D-aspartate oxidase [6], 5.89 µM; on D-aspartate oxidase [7], 3.8 µM. Moreover, the IC50 on D-aspartate oxidase [1] is 0.0219 mM; on D-amino-acid oxidase, greater than 2.5 mM. Further, in the assay on HeLa [15], the result was inactive. Also, in [11], the inhibition result is “Dose-dependent effect”.

As to `O=C(O)c1cncc(O)c1`, the IC50 is 3.35 mM on D-aspartate oxidase [1] and greater than 10 mM at D-amino-acid oxidase.

Consider `CNc1cncc(C(=O)O)c1`, for which the results for the IC50 at D-aspartate oxidase [1] and at D-amino-acid oxidase were 3.54 mM and greater than 10 mM, respectively.

Consider `O=C(O)c1cncc(Cl)c1`, for which, at D-aspartate oxidase [1], the IC50 was greater than 10 mM.

As to `O=C(O)c1ccccc1` [BENZOIC ACID], the results for the IC50 on D-aspartate oxidase [1] and on D-amino-acid oxidase were greater than 10 mM and 0.134 mM, respectively.

Turning to `Nc1ccc(C(=O)O)nc1`, the IC50 on D-aspartate oxidase [1] and on D-amino-acid oxidase was greater than 10 mM each time.

As to `O=C(O)c1cncc(F)c1` [5-FLUORONICOTINIC ACID], on D-aspartate oxidase [1], the IC50 is greater than 10 mM.

In the case of `Nc1ccc(C(=O)O)cn1`, the IC50 is 2.36 mM at D-aspartate oxidase [1] and greater than 2.5 mM at D-amino-acid oxidase.

Turning to `O=C(O)c1cncc([N+](=O)[O-])c1`, the half-inhibitory concentration (IC50) at D-aspartate oxidase [1] is greater than 10 mM.

Consider `O=C(O)c1cncc(C(F)(F)F)c1`, for which the IC50 on D-aspartate oxidase [1] is greater than 10 mM.

For `O=C(O)c1cncc(S(=O)(=O)O)c1`, the IC50 at D-aspartate oxidase [1] was greater than 10 mM.

On to `O=C(O)c1cc2ccccc2n1O`, for which the IC50 was greater than 1 mM on D-aspartate oxidase [1] and 0.00134 mM at D-amino-acid oxidase.
